# Measured values published in patent publication US7176281B2 (priority 2003, dated 2007).
# Where a SMILES comes first, the peptide text is derived from it.
# Legend:
# [1] = test system: mammalian (human and rat) type IIA sPLA2; assay type: binding
# [2] = test system: murine macrophage cell line J774; experiment: LPS- or TNF-induced PGE2 production in J774 macrophages; assay type: cell-based, mouse; conditions: J774 cells, 20 h
# Procedure: The murine macrophage cell line J774 (ATCC, USA) was cultured at 37° C. in humidified 5% CO2/95% air in Dulbecco's Modified Eagle's Medium (DMEM) containing 10% foetal bovine serum, 2 mM glutamine, 20 mM Hepes, 100 Ul/ml penicillin and 100 μg/ml streptomycin. After growing to confluence, the cells were dislodged by scrapping, plated in 12 culture wells at a density of 5×10^5 cells/ml per well, and allowed to adhere for 2 h. […] Culture medium supernatants were collected after centrifugation (10,000 g, 4° C., 15 min) and stored at −80° C. prior to measurement of PGE2, which was done according to the manufacturer's instructions (EIA kit-monoclonal, Cayman Chemical, USA).
# FIGS. 13A and 13B show modulation of LPS- and TNF-stimulated PGE2 release. […] Supernatants were collected, and PGE2 release in the medium was determined by ELISA. Results are shown as the mean±SEM of 5 experiments performed in duplicate. **P<0.01 between inhibitor-treated and untreated cultures.
# [3] = target: T1, 100-kDa human recombinant cytosolic form of PLA2 (cPLA2) (Homo sapiens, UniProt P47712); experiment: PLA2 inhibition, E. coli membrane assay, cPLA2; assay type: biochemical; conditions: inhibition
# T1 sequence (P47712 1-749): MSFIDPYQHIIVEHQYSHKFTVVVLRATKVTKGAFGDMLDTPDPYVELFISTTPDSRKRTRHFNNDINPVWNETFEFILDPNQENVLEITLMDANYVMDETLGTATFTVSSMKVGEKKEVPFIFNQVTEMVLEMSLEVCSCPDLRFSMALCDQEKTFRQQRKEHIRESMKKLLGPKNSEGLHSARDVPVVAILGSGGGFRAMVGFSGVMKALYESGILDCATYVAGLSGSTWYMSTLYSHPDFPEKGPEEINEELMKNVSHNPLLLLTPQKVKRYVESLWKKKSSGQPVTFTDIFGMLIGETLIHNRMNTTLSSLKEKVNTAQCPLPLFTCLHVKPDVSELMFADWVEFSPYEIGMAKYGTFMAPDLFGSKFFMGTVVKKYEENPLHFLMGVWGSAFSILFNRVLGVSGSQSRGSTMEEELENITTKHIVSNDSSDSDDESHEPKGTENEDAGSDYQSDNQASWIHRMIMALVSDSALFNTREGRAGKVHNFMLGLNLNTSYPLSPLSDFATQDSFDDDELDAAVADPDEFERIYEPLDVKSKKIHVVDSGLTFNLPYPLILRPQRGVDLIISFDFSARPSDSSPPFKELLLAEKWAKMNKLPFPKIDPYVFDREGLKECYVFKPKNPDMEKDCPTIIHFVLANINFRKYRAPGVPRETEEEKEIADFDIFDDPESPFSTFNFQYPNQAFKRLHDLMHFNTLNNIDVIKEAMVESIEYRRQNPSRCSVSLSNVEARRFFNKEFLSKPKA
# [4] = target: T2, Group IIA purified human synovial sPLA2 (Homo sapiens, UniProt P14555); experiment: In vitro inhibition of purified human synovial sPLA2, 3H-labelled E. coli membranes; assay type: biochemical; conditions: fixed peptide concentration 5 μM
# T2 construct: purchased Cayman, USA
# T2 sequence (P14555 21-144): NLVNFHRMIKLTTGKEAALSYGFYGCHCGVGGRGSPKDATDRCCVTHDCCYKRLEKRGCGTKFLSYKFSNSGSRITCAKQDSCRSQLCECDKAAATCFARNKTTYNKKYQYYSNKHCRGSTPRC
# [5] = test system: organotypic hippocampal slice cultures; experiment: Kainate-induced injury in organotypic hippocampal slice cultures, GluR1 immunoreactivity
smiles,measurement,setting,value
CC[C@H](C)[C@H](NC(=O)[C@H](Cc1ccc(O)cc1)NC(=O)[C@@H](NC(=O)CNC(=O)[C@H](CC(=O)O)NC(=O)[C@H](Cc1c[nH]c2ccccc12)NC(=O)[C@@H](NC(=O)[C@H](Cc1c[nH]cn1)NC(=O)[C@@H](NC(=O)[C@H](CC(=O)O)NC(=O)[C@@H](NC(=O)[C@H](CCCNC(=N)N)NC(=O)CNC(=O)[C@@H](N)CC(C)C)C(C)C)[C@@H](C)CC)C(C)C)C(C)C)C(=O)N[C@@H](CCCNC(=N)N)C(=O)NCC(=O)N[C@@H](CCCNC(=N)N)C(=O)O [P-NT.II] (H-LGRVDIHVWDGVYIRGR-OH; N-terminus and C-terminus assumed),competition with labeled P-NT.II for binding to type IIA sPLA2,[1],inhibited
same,LPS- or TNF-induced PGE2 production,[2],dose-dependently inhibit
same,selectivity for sPLA2 over cPLA2,[3],five-fold
same,inhibition at 5 µM,[4],55.6%
same,GluR1 immunoreactivity of pyramidal neurons after kainate,[5]; 10 μM added before kainate,significantly prevented the decrease in GluR1 immunoreactivity
same,protection against kainite lesioned hippocampal slices,[5]; 6–10 μM,almost complete protection
